Test results: article PMC3493588 (2012)

System: d(CCG)8C (KR-2) (DNA, single strand) CCGCCGCCGCCGCCGCCGCCGCCGC
Assay: tryptophan fluorescence quenching titration
Conditions: Na+ (0.01 M NaCl); 0.02 M Hepes, pH 7.5-7.7, 0.0001 M EDTA, 20 °C; half salt-reversal at 0.06 M Na+; weaker at higher NaCl

Question: H-RWRWKL-NH2 was tested. Which binding did it give?
Answer: yes
